Laboratory results as given in patent US20240238300A1, “TREATMENT METHODS FOR SUBJECTS WITH CANCER HAVING AN ABERRATION IN EGFR AND/OR HER2” (TAIHO PHARMACEUTICAL CO., LTD., priority 2021, published 2024).
Where two headings read alike, the source gives them in different places.

Experiments:
HER2 A775_G776insYVMA = HER2 A775_G776insYVMA (Homo sapiens, UniProt P04626, INS775YVMA); assay: in vitro kinase assay (enzyme assay); type: biochemical; settings: human recombinant enzyme; read-out: IC50 (Mean ± SD)
Sequence of HER2 A775_G776insYVMA (P04626 with tags, fused parts or gaps INS775YVMA limits assumed): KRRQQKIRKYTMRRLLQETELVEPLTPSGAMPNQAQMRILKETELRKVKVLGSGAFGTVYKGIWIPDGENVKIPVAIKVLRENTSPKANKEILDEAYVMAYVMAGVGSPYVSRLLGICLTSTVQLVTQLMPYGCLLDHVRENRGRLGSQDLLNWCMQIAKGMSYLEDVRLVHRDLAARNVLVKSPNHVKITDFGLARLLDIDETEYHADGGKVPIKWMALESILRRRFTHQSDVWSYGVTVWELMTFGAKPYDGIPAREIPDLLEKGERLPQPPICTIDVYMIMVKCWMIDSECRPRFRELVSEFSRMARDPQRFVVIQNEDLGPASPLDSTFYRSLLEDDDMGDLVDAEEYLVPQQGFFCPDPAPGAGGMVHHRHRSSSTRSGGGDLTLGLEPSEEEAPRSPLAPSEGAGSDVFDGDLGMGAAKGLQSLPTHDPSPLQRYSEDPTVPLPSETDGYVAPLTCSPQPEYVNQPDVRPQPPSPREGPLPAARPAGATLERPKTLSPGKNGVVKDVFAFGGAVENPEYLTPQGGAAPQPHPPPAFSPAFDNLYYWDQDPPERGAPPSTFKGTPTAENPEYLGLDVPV
Protocol: (§1) To investigate the inhibitory effect of Compound (1) on HER2 enzyme activity, the mean±standard deviation (SD) of half-maximal inhibitory concentration (IC50) values of Compound (1) against human recombinant enzymes of HER2 and its mutants were determined by in vitro kinase assays (Table 1).

HER2 V777L = HER2 V777L (Homo sapiens, UniProt P04626, V777L); assay: in vitro kinase assay (enzyme assay); type: biochemical; settings: human recombinant enzyme; read-out: IC50 (Mean ± SD)
Sequence of HER2 V777L (P04626 23-1255 V777L): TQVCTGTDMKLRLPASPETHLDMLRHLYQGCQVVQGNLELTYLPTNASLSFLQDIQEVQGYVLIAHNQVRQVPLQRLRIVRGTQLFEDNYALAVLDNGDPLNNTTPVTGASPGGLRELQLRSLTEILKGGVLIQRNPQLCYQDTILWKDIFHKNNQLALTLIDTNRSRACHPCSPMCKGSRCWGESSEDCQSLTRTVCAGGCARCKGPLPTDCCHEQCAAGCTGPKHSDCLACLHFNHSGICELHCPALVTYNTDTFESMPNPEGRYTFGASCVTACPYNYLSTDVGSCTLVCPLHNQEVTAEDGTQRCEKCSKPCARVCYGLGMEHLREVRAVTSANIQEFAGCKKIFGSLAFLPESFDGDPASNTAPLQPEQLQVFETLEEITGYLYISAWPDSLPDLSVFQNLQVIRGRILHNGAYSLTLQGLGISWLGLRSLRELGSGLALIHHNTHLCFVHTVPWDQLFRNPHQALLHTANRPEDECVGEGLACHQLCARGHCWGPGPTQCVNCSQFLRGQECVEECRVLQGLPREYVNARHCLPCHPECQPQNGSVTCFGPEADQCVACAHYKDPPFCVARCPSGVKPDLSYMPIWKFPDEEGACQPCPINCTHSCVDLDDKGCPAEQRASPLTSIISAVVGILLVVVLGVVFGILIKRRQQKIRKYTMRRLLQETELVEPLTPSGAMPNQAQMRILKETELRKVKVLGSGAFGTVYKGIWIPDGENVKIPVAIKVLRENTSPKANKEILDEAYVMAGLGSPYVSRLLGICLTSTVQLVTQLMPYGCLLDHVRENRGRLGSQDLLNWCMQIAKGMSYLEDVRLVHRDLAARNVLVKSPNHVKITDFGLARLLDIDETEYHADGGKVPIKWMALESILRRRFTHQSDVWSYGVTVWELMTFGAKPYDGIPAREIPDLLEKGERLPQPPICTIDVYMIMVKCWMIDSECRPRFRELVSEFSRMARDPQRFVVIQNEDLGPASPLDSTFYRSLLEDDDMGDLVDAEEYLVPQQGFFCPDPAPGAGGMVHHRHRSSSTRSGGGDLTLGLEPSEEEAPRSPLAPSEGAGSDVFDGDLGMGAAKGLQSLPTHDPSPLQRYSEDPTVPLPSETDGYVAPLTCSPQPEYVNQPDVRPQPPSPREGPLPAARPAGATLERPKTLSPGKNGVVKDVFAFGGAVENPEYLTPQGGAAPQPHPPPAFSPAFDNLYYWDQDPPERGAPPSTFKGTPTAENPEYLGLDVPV
Protocol: as §1

HER2 = HER2 (Homo sapiens, UniProt P04626); assay: in vitro kinase assay (enzyme assay); type: biochemical; settings: human recombinant enzyme; read-out: IC50 (Mean ± SD)
Sequence of HER2 (P04626 23-1255): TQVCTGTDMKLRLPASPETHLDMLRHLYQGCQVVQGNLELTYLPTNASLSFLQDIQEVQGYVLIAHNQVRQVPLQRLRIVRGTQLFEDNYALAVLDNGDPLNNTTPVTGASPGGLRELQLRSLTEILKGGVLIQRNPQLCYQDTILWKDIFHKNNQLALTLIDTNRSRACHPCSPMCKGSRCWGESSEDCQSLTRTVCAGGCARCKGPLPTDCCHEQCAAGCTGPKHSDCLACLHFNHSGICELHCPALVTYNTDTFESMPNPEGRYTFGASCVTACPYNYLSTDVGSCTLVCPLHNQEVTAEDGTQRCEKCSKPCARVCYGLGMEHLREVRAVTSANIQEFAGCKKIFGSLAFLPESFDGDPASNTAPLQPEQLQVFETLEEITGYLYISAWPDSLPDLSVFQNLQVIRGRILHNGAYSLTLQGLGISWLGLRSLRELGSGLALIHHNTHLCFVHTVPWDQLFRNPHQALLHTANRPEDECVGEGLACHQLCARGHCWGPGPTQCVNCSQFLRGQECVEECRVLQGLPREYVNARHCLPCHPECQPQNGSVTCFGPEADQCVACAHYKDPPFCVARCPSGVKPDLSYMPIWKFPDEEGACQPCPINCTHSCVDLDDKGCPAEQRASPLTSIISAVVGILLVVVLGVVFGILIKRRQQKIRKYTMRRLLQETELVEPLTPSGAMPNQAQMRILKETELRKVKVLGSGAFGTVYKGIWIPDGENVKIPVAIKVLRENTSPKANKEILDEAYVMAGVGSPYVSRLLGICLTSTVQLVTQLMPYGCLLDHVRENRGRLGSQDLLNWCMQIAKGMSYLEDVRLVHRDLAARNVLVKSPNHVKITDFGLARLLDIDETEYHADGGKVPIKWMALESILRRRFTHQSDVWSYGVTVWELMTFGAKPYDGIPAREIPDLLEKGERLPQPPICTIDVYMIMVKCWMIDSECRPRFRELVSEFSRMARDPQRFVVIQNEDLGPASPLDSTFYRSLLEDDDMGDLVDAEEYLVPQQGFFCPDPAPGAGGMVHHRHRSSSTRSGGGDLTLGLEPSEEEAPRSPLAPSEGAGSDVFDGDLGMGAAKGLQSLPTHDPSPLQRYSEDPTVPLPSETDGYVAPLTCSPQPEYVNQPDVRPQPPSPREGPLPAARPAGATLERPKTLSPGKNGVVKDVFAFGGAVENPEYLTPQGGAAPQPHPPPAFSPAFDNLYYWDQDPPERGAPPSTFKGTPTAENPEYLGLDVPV
Protocol: as §1

SK-BR-3 cells = assay: feedback activation of HER3, downstream targets and apoptosis markers in SK-BR-3 cells; type: cell-based, human; settings: 48 hours
Excerpt: The effect of Compound (1) on feedback activation of HER3, its downstream targets (ERK and AKT), and apoptosis markers (BIM and cleaved PARP) in SK-BR-3 cells was investigated. In addition, the same information for lapatinib and tucatinib (a reversible inhibitor of HER2) was obtained.

human BCRP = biological target: T1, human BCRP (Homo sapiens, UniProt Q9UNQ0); assay: inhibitory effect on human BCRP, bidirectional transport of [^3H]prazosin
T1 sequence (Q9UNQ0 1-655): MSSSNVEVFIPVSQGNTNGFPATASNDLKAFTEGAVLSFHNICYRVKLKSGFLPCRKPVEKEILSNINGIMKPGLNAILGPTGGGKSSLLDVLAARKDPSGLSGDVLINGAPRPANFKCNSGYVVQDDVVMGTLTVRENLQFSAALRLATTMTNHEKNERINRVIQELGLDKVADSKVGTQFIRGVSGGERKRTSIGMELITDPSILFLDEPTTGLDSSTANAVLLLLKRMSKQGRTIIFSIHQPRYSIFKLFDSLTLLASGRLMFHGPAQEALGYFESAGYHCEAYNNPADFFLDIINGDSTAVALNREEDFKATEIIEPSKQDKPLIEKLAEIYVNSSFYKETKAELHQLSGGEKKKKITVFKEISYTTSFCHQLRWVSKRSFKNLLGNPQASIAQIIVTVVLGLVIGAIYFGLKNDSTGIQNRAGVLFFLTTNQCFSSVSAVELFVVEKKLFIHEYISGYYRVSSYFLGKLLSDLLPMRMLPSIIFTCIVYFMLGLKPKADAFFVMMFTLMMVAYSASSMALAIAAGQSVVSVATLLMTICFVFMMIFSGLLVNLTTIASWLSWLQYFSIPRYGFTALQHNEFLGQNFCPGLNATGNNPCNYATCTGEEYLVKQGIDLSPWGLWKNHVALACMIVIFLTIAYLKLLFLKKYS

NCI-N87 cells = assay: growth inhibitory effect in human cancer cell lines (GI50); type: cell-based; settings: gastric cancer, HER2 gene amplification
Excerpt: (§2) Among the 9 cell lines tested, HER2 gene amplification has previously been reported in BT-474 cells (breast cancer) and NCI-N87 cells (gastric cancer), while HER2 gene mutation (DelG776insVC) has been reported in NCI-H1781 cells (lung cancer).

NCI-H1781 cells = assay: as above; type: cell-based; settings: lung cancer, HER2 DelG776insVC
Excerpt: as §2

BT-474 cells = assay: as above; type: cell-based; settings: breast cancer, HER2 gene amplification
Excerpt: as §2

[1] = pharmacokinetics after multiple oral administration for 7 days; type: in vivo, male nude mice; settings: for AUC(0-t): male, nude, mouse, plasma, read-out: AUC0-24
Protocol: Compound (1) was orally administered. The concentrations of Compound (1) were quantified using LC-MS/MS for the PK studies. ^13C-labeled Compound (1) was used as an internal standard.
Pharmacokinetics in nude mice after multiple oral administration for 7 days. Plasma concentration profiles and PK parameters of Compound (1) on Day 7 were determined in male nude mice after once daily oral administrations for 7 days at doses of 6.25, 12.5, and 25 mg/kg (FIGS. 5A and 5B, and Table 5). The Cmax, AUClast, and AUC0-24 values increased in a dose-dependent manner.

[2] = system: NCI-H1975 EGFR D770_N771insSVD cells; assay: growth inhibitory effect in human cancer cell lines (GI50); type: cell-based; settings: lung cancer, EGFR exon 20 insertion
[3] = system: intracranial NCI-N87-luc human gastric carcinoma xenografts; assay: intracranial antitumor effect, NCI-N87-luc xenografts; type: in vivo, nude mice; settings: Day 22
Protocol: The intracranial antitumor effect of Compound (1) was evaluated using Compound (1) in nude mice intracranially implanted with NCI-N87-luc cells, which were engineered to stably express the luciferase gene using the HER2-overexpressing NCI-N87 human gastric carcinoma cell line. Compound (1) dosing suspensions using 0.5% w/v HPMC as vehicle were prepared with Compound (1) at 3 dose levels (16.0, 20.0, or 25.0 mg/kg/day) and administered PO QD for 21 days. The control group received 0.5% weight per volume (w/v) hydroxypropyl methylcellulose (HPMC) solution orally once daily for 21 days. The antitumor effect of poziotinib was also evaluated using this model. Poziotinib was administered PO QD for 21 days at 2 dose levels (0.5 or 1.0 mg/kg/day).

HCC827 cells = assay: growth inhibitory effect in human cancer cell lines (GI50); type: cell-based; settings: lung cancer, EGFR DelE746_A750
Excerpt: (§3) Wild-type EGFR gene amplification without HER2 amplification has been observed in A-431 cells. HCC827 cells (lung cancer) have been reported as harboring an EGFR activating mutation (DelE746_A750). NCI-H1975 cells (lung cancer) have been reported as having activating and acquired EGFR resistance mutations (L858R and T790M).

A-431 cells = assay: as above; type: cell-based; settings: wild-type EGFR gene amplification
Excerpt: as §3

NCI-H1975 cells = assay: as above; type: cell-based; settings: lung cancer, EGFR L858R and T790M
Excerpt: as §3

[4] = Day 7, once daily oral 6.25 mg/kg for 7 days
[5] = Day 7, once daily oral 12.5 mg/kg for 7 days
[6] = Day 7, once daily oral 25 mg/kg for 7 days

`C=CC(=O)N1C[C@H](n2c(C#CC3CC3)c(C(=O)N[C@H](C)c3ccccc3)c3c(N)ncnc32)C[C@@H]1C` [Compound (1), 7-((3R,5S)-1-acryloyl-5-methylpyrrolidin-3-yl)-4-amino-6-(cyclopropylethynyl)-N—((R)-1-phenylethyl)-7H-pyrrolo[2,3-d]pyrimidine-5-carboxamide] gave an IC50 (HER2 A775_G776insYVMA) of 1 ± 0.2 nM, an IC50 (HER2 V777L) of 2.1 ± 0.8 nM and an IC50 (HER2) of 5.6 ± 0.3 nM. For the same compound, the “BIM and cleaved PARP” value (SK-BR-3 cells; 10 to 100 nmol/L) was “markedly increased”, the “phosphorylation of HER2, HER3, AKT, and ERK” value (SK-BR-3 cells; concentrations starting as low as 10 nmol/L) was “sustained inhibition” and the IC50 (human BCRP) was 332 nM. The GI50 (NCI-N87 cells) was 0.891 ± 0.312 nM, the GI50 (NCI-H1781 cells) was 5.85 ± 2.83 nM and the GI50 (BT-474 cells) was 2.05 ± 0.48 nM. The AUClast [1, 4] was 972 ± 239 ng·h/mL, the Cmax [1, 4] was 1170 ± 300 ng/mL and the Tmax [1, 4] was 15 ± 0 min. The AUC0-24 [1, 5] was 2830 ± 400 ng·h/mL, the AUClast [1, 5] was 2800 ± 460 ng·h/mL and the Cmax [1, 5] was 2040 ± 230 ng/mL. For the same compound, the Tmax [1, 5] was 19.8 ± 8.4 min, the AUClast [1, 6] was 6180 ± 310 ng·h/mL and the Cmax [1, 6] was 3710 ± 360 ng/mL. The Tmax [1, 6] was 25.2 ± 8.4 min, the AUC(0-t) [1, 4] was 1030 ± 280 ng·h/mL and the AUC(0-t) [1, 6] was 6400 ± 430 ng·h/mL. The GI50 [2] was 8.71 ± 4.56 nM, the “T/C ratio of the mean total flux” value ([3]; 16.0 mg/kg/day PO QD 21 days) was 16.9% and the “mean body weight change (BWC)” value ([3]; 16.0 mg/kg/day) was 1.4%. For the same compound, the “T/C ratio of the mean total flux” value ([3]; 20.0 mg/kg/day PO QD 21 days) was 4.7%, the “mean body weight change (BWC)” value ([3]; 20.0 mg/kg/day) was −0.4% and the GI50 (HCC827 cells) was 2.13 ± 0.61 nM. It also gave a GI50 (A-431 cells) of 8.64 ± 1.07 nM and a GI50 (NCI-H1975 cells) of 37.5 ± 20.4 nM.
